In experiment [1] the test system is adenosine uptake into HeLa cells. Nature of the experiment: [3H]Adenosine uptake assay in HeLa cells. It counts as cell-based. The conditions noted are these: [3H]adenosine accumulation in HeLa cells, compound range 10 μM to 0.032 nM, read-out: ADU inhibition IC50. As to the method: Compounds are also screened in an adenosine uptake functional cellular assay using the protocol described below:
[^3H]Adenosine Uptake Assay Methods
Adenosine uptake activity was determined by monitoring the accumulation of tritiated adenosine into HeLa cells (ATCC catalog # CCL-2) using a PMT-based radiometric detection instrument. In this assay, the potency (IC50) of each compound was determined from a ten point (1:3 serial dilution; final compound concentration range in assay from 10 µM to […]) titration curve using the following outlined procedure. To each well of a 96-well CytoStar-T scintillating microplate (Perkin Elmer Catalog # RPNQ0163), 25 000 HeLa cells in 100 µL of growth medium comprising: Minimum Essential Media (Life Technologies Catalog #11095-080)+10% (v/v) foetal bovine serum (FBS; Sigma Aldrich Catalog # F2442) was added. These cells were incubated overnight at 37° C. in a humidified atmosphere with 5% (v/v) CO2. After this time the growth medium was removed and replaced with 40 μL assay medium comprising: Hanks balanced salts solution (HBSS; Thermo Fisher Catalog # SH30268.01)+5% (v/v) FBS. Compound stock solutions in DMSO were diluted in assay medium to 2.5× final compound concentration maintaining a constant DMSO concentration of 0.25% (v/v). 40 μL of compound in assay medium was dispensed into individual wells of the Cytostar-T plates and the plates were incubated for 30 minutes under ambient laboratory conditions. Following this incubation, 20 μL of 500 nM [^3H] adenosine (American Radiolabeled Chemicals Inc. […] The amount of radiolabel accumulation was then determined using a Perkin Elmer Topcount NXT microplate reader. In brief, HeLa cells adhere to the bottom of the Cytostar-T plate, uptake of [^3H]adenosine into these cells brings the radiolabel into sufficient proximity to excite the scintillant in the base of the plates. These events are captured by single PMT, time-resolved coincidence counting. IC50 values were determined by 4 parameter robust fit of counts per second values vs. (Log10) compound concentrations.

The target of experiment [2] is BTK enzyme (recombinant full-length BTK, hBTK) (Homo sapiens (Human), UniProt Q06187). Nature of the experiment: BTK enzymatic activity LANCE TR-FRET assay. The experiment is classed as biochemical. The conditions noted are these: 50 pM hBTK, 25 μM ATP, 2 μM biotin-A5-peptide; compound range 1 μM to 0.017 nM; read-out: BTK binding IC50. As to the method:
Btk Enzyme Activity Assay Methods
BTK enzymatic activity was determined with the LANCE (Lanthanide Chelate Excite) TR-FRET (Time-resolved fluorescence resonance energy transfer) assay. […] Phosphorylation reactions were allowed to proceed for 120 minutes. […] After 60 minutes incubation with detection reagents, reaction plates were read on a PerkinElmer EnVision plate reader using standard TR-FRET protocol. […] IC50 values were determined by 4 parameter robust fit of TR-FRET ratio values vs. (Log10) compound concentrations.
A general note: TR-FRET usually uses a lanthanide donor and a delayed reading to cut background.

Read-outs that look alike come from different tables or passages of the source.

Sequence of BTK enzyme (recombinant full-length BTK, hBTK) (Q06187 whole entry): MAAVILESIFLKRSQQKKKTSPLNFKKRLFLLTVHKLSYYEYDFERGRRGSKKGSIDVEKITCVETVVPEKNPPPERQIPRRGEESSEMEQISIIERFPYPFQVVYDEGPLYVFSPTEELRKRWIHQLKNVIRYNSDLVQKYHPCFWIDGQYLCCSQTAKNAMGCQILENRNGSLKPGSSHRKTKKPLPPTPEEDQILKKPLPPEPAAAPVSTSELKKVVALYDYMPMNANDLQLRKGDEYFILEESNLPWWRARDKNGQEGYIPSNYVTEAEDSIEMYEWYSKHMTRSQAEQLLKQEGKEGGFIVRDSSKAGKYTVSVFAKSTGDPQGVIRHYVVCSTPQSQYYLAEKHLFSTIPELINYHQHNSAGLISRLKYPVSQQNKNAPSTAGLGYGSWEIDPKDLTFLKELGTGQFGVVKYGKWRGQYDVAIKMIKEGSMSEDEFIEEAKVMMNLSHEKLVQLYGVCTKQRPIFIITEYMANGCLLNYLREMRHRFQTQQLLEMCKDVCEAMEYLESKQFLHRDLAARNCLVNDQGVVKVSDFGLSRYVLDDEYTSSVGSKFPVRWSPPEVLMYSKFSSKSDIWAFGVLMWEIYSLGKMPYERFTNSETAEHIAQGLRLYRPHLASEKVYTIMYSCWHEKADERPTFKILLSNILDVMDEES

What is called IC50 is the concentration that inhibits the measured activity by half. For `Cc1cc(-c2nc([C@@H]3CC[C@H]4CCC(=O)N4C3)n3ccnc(N)c23)ccc1C(C)(O)c1cccc(C(F)(F)F)c1` (stereo partly drawn) [Example 43, (6R,8aS)-6-[8-amino-1-(4-{1-hydroxy-1-[3-(trifluoromethyl)phenyl]ethyl}-3-methylphenyl)imidazo [1,5-a]pyrazin-3-yl]hexahydroindolizin-3(2H)-one], the results for the IC50 in experiment [1] and in experiment [2] were 535 nM and 1000 nM, respectively.

As for `COc1cccc([C@@](C)(O)c2ccc(-c3nc([C@@H]4CC[C@H]5CCC(=O)N5C4)n4ccnc(N)c34)cc2)c1` [Example 44, (6R,8aS)-6-(8-amino-1-{4-[(1S)-1-hydroxy-1-(3-methoxyphenyl)ethyl]phenyl}imidazo[1,5-a]pyrazin-3-yl)hexahydroindolizin-3(2H)-one], the concentration for half-maximal inhibition (IC50) in experiment [1] (Homo sapiens, HeLa) worked out at 1780 nM; in experiment [2], 81.4 nM.

For the compound `COc1cccc([C@](C)(O)c2ccc(-c3nc([C@@H]4CC[C@H]5CCC(=O)N5C4)n4ccnc(N)c34)cc2)c1` [Example 45, (6R,8aS)-6-(8-amino-1-{4-[(1R)-1-hydroxy-1-(3-methoxyphenyl)ethyl]phenyl}imidazo[1,5-a]pyrazin-3-yl)hexahydroindolizin-3(2H)-one], the 50% inhibitory concentration (IC50) in experiment [1] (Homo sapiens, HeLa) is 2760 nM; in experiment [2], 1.1 nM.

For the compound `Cc1cccc([C@](C)(O)c2ccc(-c3nc([C@@H]4CC[C@H]5CCC(=O)N5C4)n4ccnc(N)c34)cc2)c1` [Example 46, (6R,8aS)-6-(8-amino-1-(4-[(1R)-1-hydroxy-1-(3-methylphenyl)ethyl]phenyl}imidazo[1,5-a]pyrazin-3-yl)hexahydroindolizin-3(2H)-one], the IC50 in experiment [1] (Homo sapiens, HeLa) was determined as 3210 nM; in experiment [2], 0.23 nM.

For `Cc1ccccc1[C@@](C)(O)c1ccc(-c2nc([C@@H]3CC[C@H]4CCC(=O)N4C3)n3ccnc(N)c23)cc1` [Example 47, (6R,8aS)-6-(8-amino-1-{4-[(1S)-1-hydroxy-1-(2-methylphenyl)ethyl]phenyl}imidazo[1,5-a]pyrazin-3-yl)hexahydroindolizin-3(2H)-one], the IC50 in experiment [1] (Homo sapiens, HeLa) came to 2040 nM; in experiment [2], 183 nM.

With `Cc1ccccc1[C@](C)(O)c1ccc(-c2nc([C@@H]3CC[C@H]4CCC(=O)N4C3)n3ccnc(N)c23)cc1` [Example 48, (6R,8aS)-6-(8-amino-1-{4-[(1R)-1-hydroxy-1-(2-methylphenyl)ethyl]phenyl}imidazo[1,5-a]pyrazin-3-yl)hexahydroindolizin-3(2H)-one], the IC50 was found to be 3300 nM in experiment [1] (Homo sapiens, HeLa) and 2.5 nM in experiment [2].

In the case of `COc1ccccc1[C@@](C)(O)c1ccc(-c2nc([C@@H]3CC[C@H]4CCC(=O)N4C3)n3ccnc(N)c23)cc1` [Example 49, (6R,8aS)-6-(8-amino-1-{4-[(1S)-1-hydroxy-1-(2-methoxyphenyl)ethyl]phenyl}imidazo[1,5-a]pyrazin-3-yl)hexahydroindolizin-3(2H)-one], the concentration for half-maximal inhibition (IC50) is 2950 nM in experiment [1] (Homo sapiens, HeLa) and 45.2 nM in experiment [2].

As for `COc1ccccc1[C@](C)(O)c1ccc(-c2nc([C@@H]3CC[C@H]4CCC(=O)N4C3)n3ccnc(N)c23)cc1` [Example 50, (6R,8aS)-6-(8-amino-1-{4-[(1R)-1-hydroxy-1-(2-methoxyphenyl)ethyl]phenyl}imidazo[1,5-a]pyrazin-3-yl)hexahydroindolizin-3(2H)-one], the IC50 was 1220 nM in experiment [1] (Homo sapiens, HeLa) and 243 nM in experiment [2].

Consider `C[C@](O)(c1ccc(-c2nc([C@@H]3CC[C@H]4CCC(=O)N4C3)n3ccnc(N)c23)cc1)c1cccc(C2CC2)c1` [Example 51, (6R,8aS)-6-(8-amino-1-{4-[(1S)-1-(3-cyclopropylphenyl)-1-hydroxyethyl]phenyl}imidazo[1,5-a]pyrazin-3-yl)hexahydroindolizin-3(2H)-one], for which the IC50 in experiment [1] (Homo sapiens, HeLa) was found to be 569 nM; in experiment [2], 5.9 nM.

On to `C[C@@](O)(c1ccc(-c2nc([C@@H]3CC[C@H]4CCC(=O)N4C3)n3ccnc(N)c23)cc1)c1cccc(Cl)c1` [Example 52, (6R,8aS)-6-(8-amino-1-{4-[(1R)-1-(3-chlorophenyl)-1-hydroxyethyl]phenyl}imidazo[1,5-a]pyrazin-3-yl)hexahydroindolizin-3(2H)-one], for which the IC50 was determined as 3830 nM in experiment [1] (Homo sapiens, HeLa) and 0.47 nM in experiment [2].
